Measurements as given in publication PMC8237267 (Journal of Medicinal Chemistry, 2021).
pIC50: −log10 of the molar value. Where “and” joins values, the source holds several entries; their conditions need not be identical. Identical values can stand only once. Like-named read-outs stand apart in the source and are kept apart here.

Legend:
[1] = target: T1, HDAC3 (Homo sapiens, UniProt O15379); experiment: HDAC EMSA activity assay (Nanosyn); format: biochemical; conditions: recombinant enzyme, read-out: In vitro IC50 HDAC3
T1 construct: The full-length human HDACs were recombinantly expressed and purified from SF9 insect cells; host or cells: SF9 insect cells
T1 sequence (O15379 whole entry): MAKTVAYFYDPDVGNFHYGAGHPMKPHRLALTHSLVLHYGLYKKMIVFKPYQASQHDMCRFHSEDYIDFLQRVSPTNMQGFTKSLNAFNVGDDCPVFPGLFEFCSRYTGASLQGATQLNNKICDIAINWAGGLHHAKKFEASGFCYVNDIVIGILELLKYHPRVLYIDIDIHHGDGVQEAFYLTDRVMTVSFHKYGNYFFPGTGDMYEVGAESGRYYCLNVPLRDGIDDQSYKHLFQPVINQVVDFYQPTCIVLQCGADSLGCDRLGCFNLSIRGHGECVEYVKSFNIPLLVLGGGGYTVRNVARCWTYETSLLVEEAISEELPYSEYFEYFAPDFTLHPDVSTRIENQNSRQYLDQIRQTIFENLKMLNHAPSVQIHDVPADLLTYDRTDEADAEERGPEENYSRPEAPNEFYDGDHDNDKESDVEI
T1 sequence (Q9Y618 395-489 partner limits assumed): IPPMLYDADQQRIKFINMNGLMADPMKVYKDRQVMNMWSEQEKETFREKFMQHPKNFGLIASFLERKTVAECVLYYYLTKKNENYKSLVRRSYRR

[2] = target: T2, HDAC6 (Homo sapiens, UniProt Q9UBN7); experiment: HDAC EMSA activity assay (Nanosyn); format: biochemical; parameters: The full-length human HDACs were recombinantly expressed and purified from SF9 insect cells; host or cells: SF9 insect cells; conditions: for pIC50: EMSA (Nanosyn); for HDAC6 fold-selectivity: over the next closest HDAC isoform tested, * = selectivity ≥ indicated value
T2 sequence (Q9UBN7 1-1215): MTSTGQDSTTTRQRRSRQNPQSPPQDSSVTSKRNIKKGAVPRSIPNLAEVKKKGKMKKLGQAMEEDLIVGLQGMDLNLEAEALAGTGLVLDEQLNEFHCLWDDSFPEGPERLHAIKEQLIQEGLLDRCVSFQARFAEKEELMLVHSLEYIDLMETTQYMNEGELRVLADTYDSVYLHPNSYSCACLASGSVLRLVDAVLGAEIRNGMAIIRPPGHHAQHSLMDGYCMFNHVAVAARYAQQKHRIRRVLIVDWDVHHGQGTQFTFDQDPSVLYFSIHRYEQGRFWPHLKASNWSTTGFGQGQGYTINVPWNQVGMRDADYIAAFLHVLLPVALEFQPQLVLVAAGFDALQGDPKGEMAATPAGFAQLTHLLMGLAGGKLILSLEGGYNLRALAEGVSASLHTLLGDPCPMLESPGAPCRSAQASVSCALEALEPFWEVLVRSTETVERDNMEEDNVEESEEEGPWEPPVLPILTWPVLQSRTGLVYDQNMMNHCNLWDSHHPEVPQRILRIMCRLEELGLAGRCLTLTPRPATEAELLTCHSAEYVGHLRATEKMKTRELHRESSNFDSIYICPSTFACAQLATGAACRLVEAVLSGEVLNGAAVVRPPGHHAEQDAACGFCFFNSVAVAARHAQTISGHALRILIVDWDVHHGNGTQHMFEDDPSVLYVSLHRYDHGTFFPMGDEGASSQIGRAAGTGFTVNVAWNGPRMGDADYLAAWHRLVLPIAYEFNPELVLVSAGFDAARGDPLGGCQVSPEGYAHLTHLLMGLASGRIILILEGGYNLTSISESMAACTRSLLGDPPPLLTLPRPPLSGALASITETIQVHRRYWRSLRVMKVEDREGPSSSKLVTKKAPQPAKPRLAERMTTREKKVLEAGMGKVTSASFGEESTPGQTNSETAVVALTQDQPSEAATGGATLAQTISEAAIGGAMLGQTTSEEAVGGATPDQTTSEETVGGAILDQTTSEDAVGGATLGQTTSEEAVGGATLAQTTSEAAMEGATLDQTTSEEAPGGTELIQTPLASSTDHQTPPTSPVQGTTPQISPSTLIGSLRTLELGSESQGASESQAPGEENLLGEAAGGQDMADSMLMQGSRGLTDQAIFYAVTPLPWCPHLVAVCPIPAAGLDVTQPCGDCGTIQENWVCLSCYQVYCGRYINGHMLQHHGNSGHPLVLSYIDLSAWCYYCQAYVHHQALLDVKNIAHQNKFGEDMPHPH

[3] = target: T2, HDAC6; experiment: Reversibility of inhibition (Koff kinetics), residence time; format: biochemical; conditions: compound-HDAC6 complex; read-out: in vitro residence time (1/kobs)
Excerpt: Progress curves were obtained after dilution, and enzyme recovery was fitted with the following equation: % conv = Vs × t + (Vi – Vs)/Kobs app × (1 – exp(−Kobs app × t), in which Vi is the initial velocity, Vs is steady state velocity, and Kobs is the observed rate constant. The obtained Kobs rate constant was used to determine the reversibility of inhibition and calculate residence time as 1/2Tres = ln2 × 1/Kobs.

[4] = target: T3, HDAC11 (Homo sapiens, UniProt Q96DB2); experiment: HDAC EMSA activity assay (Nanosyn); format: biochemical; conditions: recombinant enzyme, read-out: In vitro IC50 HDAC11
T3 construct: The full-length human HDACs were recombinantly expressed and purified from SF9 insect cells; host or cells: SF9 insect cells
T3 sequence (Q96DB2 1-347): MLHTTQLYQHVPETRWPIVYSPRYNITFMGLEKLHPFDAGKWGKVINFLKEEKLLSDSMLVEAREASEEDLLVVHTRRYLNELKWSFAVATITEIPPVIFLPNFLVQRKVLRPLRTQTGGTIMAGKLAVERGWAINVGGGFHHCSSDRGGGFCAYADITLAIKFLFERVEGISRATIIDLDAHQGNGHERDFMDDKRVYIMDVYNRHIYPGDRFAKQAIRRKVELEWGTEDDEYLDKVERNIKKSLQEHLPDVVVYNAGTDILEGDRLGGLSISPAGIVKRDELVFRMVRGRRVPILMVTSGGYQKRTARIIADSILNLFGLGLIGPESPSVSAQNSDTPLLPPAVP

[5] = tested on: MRC-9; experiment: Cytotoxicity assay (Cell Titer-Blue, 72 h); format: cell-based; conditions: MRC9; MRC-9 (healthy fibroblasts); read-out: In cellulo IC50 MRC-9
[6] = target: T4, HDAC8 (Homo sapiens, UniProt Q9BY41); experiment: HDAC EMSA activity assay (Nanosyn); format: biochemical; conditions: recombinant enzyme, EMSA (Nanosyn); read-out: In vitro IC50 HDAC8
T4 construct: The full-length human HDACs were recombinantly expressed and purified from SF9 insect cells; host or cells: SF9 insect cells
T4 sequence (Q9BY41 1-377): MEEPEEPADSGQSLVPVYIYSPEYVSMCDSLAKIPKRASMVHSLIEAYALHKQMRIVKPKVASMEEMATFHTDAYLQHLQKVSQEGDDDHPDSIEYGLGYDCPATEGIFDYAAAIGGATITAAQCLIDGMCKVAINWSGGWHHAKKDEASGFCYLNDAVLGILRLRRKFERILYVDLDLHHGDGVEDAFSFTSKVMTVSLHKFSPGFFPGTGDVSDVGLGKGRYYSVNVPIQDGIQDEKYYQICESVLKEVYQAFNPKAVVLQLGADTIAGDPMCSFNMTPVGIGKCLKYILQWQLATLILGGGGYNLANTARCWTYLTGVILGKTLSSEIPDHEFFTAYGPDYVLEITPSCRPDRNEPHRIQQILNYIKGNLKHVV

[7] = tested on: MV4-11; experiment: Cytotoxicity assay (Cell Titer-Blue, 72 h); format: cell-based; conditions: Homo sapiens; MV4-11 (AML); read-out: In cellulo IC50 MV4-11
[8] = In vitro stability in mouse hepatocytes; format: in vitro ADME; conditions: read-out: Stability in mouse hepatocytes t1/2
Procedure: The inhibitors (and controls) were formulated to concentrations of 100 μM in 50% acetonitrile/50% water. The medium (William’s E Medium supplemented with GlutaMAX) and hepatocyte thawing medium were allowed to reach room temperature and the hepatocytes and thawing medium and centrifuged at 100 g for 10 min. The supernatant was removed, and hepatocytes resuspended in the incubation medium (∼1.5 × 10^6 cells/mL). The cells were diluted to 0.5 × 10^6 viable cells/mL. A volume of 198 μL of hepatocytes was transferred to a 96-well noncoated plate and incubated at 37 °C for 10 min. Following this, 2 μL of the 100 μM test compounds or positive control was transferred into respective wells to start the reaction. At different time points (0, 15, 30, 60, 90, and 120 min), 25 μL aliquots were mixed with 6 volumes (150 μL) of acetonitrile containing internal standard, IS (100 nM alprazolam, 200 nM labetalol, 200 nM caffeine, and 200 nM diclofenac) to terminate the reaction. Samples were vortexed for 5 min and centrifuged for 45 min at 3220g, diluted by ultrapure water, followed by LC/MS/MS analysis. The in vitro half-life (T1/2) was determined by regression analysis of the percent parent disappearance vs time curve (T1/2 = 0.693/k) using Microsoft Excel.

[9] = Glutathione stability / reactivity assay; format: in vitro ADME
Procedure: Although covalent modification of HDAC6 was not observed (Figure S2), the PFBS group is susceptible to nucleophilic aromatic substitution by biological nucleophiles. A previously described high-throughput in vitro glutathione-reactivity assay was conducted, where compounds were incubated in the presence of glutathione (GSH) and the formation of a GSH-compound adduct was monitored over time via LC/MS/MS.[50]
Compound was added to PBS and 5 mM GSH to reach a final concentration of 5 μM. […] Samples were vortexed and centrifuged for 45 min at 3220g. Aliquots were diluted by ultrapure water, and used for LC/MS/MS analysis. Peak area ratios were determined and percent compounds remaining was calculated by the following equation: [drawing 1] where peak area ratio (t min) is the peak area ratio of control and test compounds at t min; peak area ratio0min is the peak area ratio of control and test compounds at the zero time point. In vitro half-life (t1/2) = −(0.693/k).

[10] = Stability in human hepatocytes; format: in vitro ADME; conditions: read-out: t1/2 in human hepatocytes
[11] = Stability in hepatocytes (species not stated); format: in vitro ADME; parameters: dose or concentration left out as unconfirmed; conditions: mouse, species not given
[12] = target: T2, HDAC6; experiment: Time-dependent IC50 assay with preincubation (0-6 h); format: biochemical; conditions: 6 h time-dependent assay
Procedure: The binding kinetics profile of KT-531 was also investigated by determining the association (kon)/dissociation (koff) rates as well as residence time parameters. The in vitro residence time (1/kobs) for the KT-531–HDAC6 complex was determined to be 23.18 min, as compared to 10.72 min for 1.

[13] = Stability in mouse plasma; format: in vitro ADME; parameters: half-life at 2 h: dose or concentration left out as unconfirmed; conditions: read-out: Plasma stability t1/2
Procedure: The plasma stability of the compounds was evaluated in mouse plasma provided from Sigma-Aldrich, Oakville, Canada. The main stock solutions of the compounds were prepared at 10 mM in DMSO, which was diluted to 100 μM in 50% acetonitrile (ACN)/50% water. Aliquots of 356.5 μL of plasma proteins were placed in a heating block and allowed to equilibrate at 37 °C for 5 min. Then, 3.5 μL of 100 μM compound solutions were added to each vial (final concentration of 1 μM). Three quality control (QC) samples at 100, 500, and 1000 nM were prepared in 0.5% ACN. The vial contents were transferred in 50 μL aliquots at time points of 0.5, 5, 10, 20, 30, and 60 mi to a 96-well autosampler plate containing 150 μL of protein precipitation solution. Ice-cold ACN containing internals standards (100 nM glyburide) were used as the protein precipitation solution. After centrifugation at 4 °C, 5500 rpm for 15 min, the supernatant was diluted in MQ water, and injected into the LC/MS/MS for quantitative analysis.
The mobile phase consisted of (A) 0.1% (v/v) formic acid in Milli-Q water; (B) 0.1% (v/v) formic acid in acetonitrile. […] Peak areas were determined from extracted ion chromatograms. The in vitro half-life (t1/2) of parent compounds were determined by regression analysis of the percent parent disappearance vs time curve.

[14] = recombinant enzyme, read-out: In vitro IC50 HDAC6
[15] = PBS with 5 mM glutathione (GSH), 5 mM GSH, PBS, read-out: half-life in incubation with GSH

O=C(NO)c1ccc(CNC(=O)c2c(F)c(F)c(F)c(F)c2F)cc1 [Compound 1, 2,3,4,5,6-Pentafluoro-N-(4-(hydroxycarbamoyl)benzyl)benzamide]
pIC50 [1]: 6.70
pIC50 ([2]; read-out: IC50 HDAC6): 8.23
HDAC6 fold-selectivity [2]: 36 fold and 36.32 fold
pIC50 [2, 14]: 8.22
residence time [3]: 10.7 min
pIC50 [4]: < 6.00
pIC50 [5]: < 4.30
pIC50 [6]: 6.15
pIC50 [7]: 5.73

O=C(NO)c1ccc(CN(C2CC2)S(=O)(=O)c2c(F)c(F)c(F)c(F)c2F)cc1 [Compound 5, 4-(((N-Cyclopropyl-2,3,4,5,6-pentafluorophenyl)sulfonamido)methyl)-N-hydroxybenzamide]
half-life at 1 μM [8]: < 2.26 min
half-life at 5 μM [9, 15]: ~20 min
half-life at 2 h, 5 µM [9, 15]: 20 min
pIC50 [1]: 7.15
half-life [10]: 3.84 min
pIC50 ([2]; read-out: IC50 HDAC6): 9.05
pIC50 [4]: 7.33
pIC50 [5]: < 4.70
pIC50 [6]: 7.54
half-life at 2 h [11]: 3 min
reversibility of binding (IC50 over preincubation time) [12]: unchanged IC50 values

O=C(NO)c1ccc(CN(C2CC2)S(=O)(=O)c2c(F)c(F)cc(F)c2F)cc1 [Compound 6, 4-(((N-Cyclopropyl-2,3,5,6-tetrafluorophenyl)sulfonamido)methyl)-N-hydroxybenzamide]
reactivity with glutathione ([9]; GSH adduct formation by LC/MS/MS, KT-531 up to 24 h): unreactive toward GSH
pIC50 [1]: < 6.00
HDAC6 fold-selectivity [2]: 37.8 fold
pIC50 [2, 14]: 8.00
half-life at 2 h [13]: 25 min
pIC50 [4]: < 6.00
pIC50 [5]: < 4.82
pIC50 [6]: 6.42
pIC50 [7]: 5.21
